Measurements as given in patent US20250129041A1, “MOLECULAR GLUE AND USES THEREOF” (ASTROGEN, INC., priority 2023, published 2025).

How the values were obtained:
CRBN proteins = CRBN proteins (Homo sapiens (Human), UniProt Q96SW2); assay: CRBN affinity test; type: binding; conditions: purified CRBN proteins expressed in E. coli
Experimental: First, CRBN proteins were expressed in E. coli and purified, and then the purified CRBN proteins were dissolved in a buffer solution (PBS). […] After the mixture was sufficiently mixed and reacted, the binding strength at each concentration was measured to collect data, and a binding curve was created therefrom (see FIG. 13), and the KD (equilibrium dissociation constant) values were derived therefrom (see Table 9 and FIG. 14).

SNU449 = assay: HCC cell survival by cell nuclear staining, 24 hours, SNU449; type: cell-based; conditions: Homo sapiens, SNU-449
Experimental: (§1) An indication expansion experiment was performed to evaluate the potential of AST-DT-218 for treating hepatocellular carcinoma (HCC). First, HCC cell lines (Huh7, Hep3B, SNU449, and SNU475) were prepared, and AST-DT-218 and Sorafenib were at the highest concentration of 50 μM, serially diluted by half starting therefrom, thereby preparing 10 concentrations (50 μM, 25 μM, 12.5 μM, etc.). HCC cell lines (Huh7, Hep3B, SNU449, SNU475) were seeded into 96-well plates, in which each well was treated with AST-DT-218 and Sorafenib solutions, and the cells were cultured in an incubator for 24 hours. Then, the cell survival at each concentration was evaluated by measuring the cell count using cell nuclear staining, and a concentration-response curve of cell survival was created based on the data, and the IC50 value was derived.

[1] = Single dose toxicity study; type: in vivo; conditions: rats
Experimental: The toxicity of AST-DT-218 at a single dose was evaluated. First, healthy adult male and female rats were prepared and then fasted for 12 hours before the experiment. Solutions were prepared for each dose group (0 mg/kg, 500 mg/kg, 1,000 mg/kg, and 2,000 mg/kg), and the final solution volume was set at 40 mL/kg.
For […] to 15 days after administration, clinical symptoms (e.g., colored stool, hairloss, etc.), changes in weight, changes in food consumption, and changes in organ weight were observed, and ophthalmic examinations were performed and autopsies were performed.

[2] = Maximum tolerated dose (MTD) test; type: in vivo; conditions: mice, daily injection day 1 to day 5, highest dose 20 mg/kg
Experimental: The in vivo maximum tolerated dose (MTD) of AST-DT-218 was evaluated to determine the highest dose at which AST-DT-218 could be safely administered to experimental animals. First, the compound AST-DT-218 and the preparation solvent to be used in the experiment were prepared. The solvent was a mixture of 5% Tween 80, 40% PEG400, 10% DMSO, and 45% DPBS, and AST-DT-218 was prepared according to each dose as shown in Table 6 below. Mice (n=5) to be used in the experiment were prepared and divided into five groups to perform the experiment. The control group was injected with only 0 mg/kg of the solvent, and the remaining groups were injected with the AST-DT-218 solution at 2.5 mg/kg, 5 mg/kg, 10 mg/kg, and 20 mg/kg, respectively, and the injection amount was set to 0.1 mL for a 20 g mouse.
From day 1 to day 5, the injections were administered at the same time daily, and the changes in weight and abnormal behaviors of the mice were observed and data were collected during the experiment.

SNU475 = assay: HCC cell survival by cell nuclear staining, 24 hours, SNU475; type: cell-based; conditions: Homo sapiens, SNU-475
Experimental: as §1

Hep3B [3] = assay: Dose response curve, cell survival, 48 hours, Hep3B; type: cell-based; conditions: Homo sapiens, Hepatocellular Carcinoma, read-out: IC50 of AST-DT-218, Hep3B
Experimental: (§2) A DRC was created to determine whether AST-DT-218 is effective in killing various cancer cells. First, hepatoma cell lines (Huh7 and Hep3B), non-small cell lung cancer cell lines (NCI-H460 and NCI-H1299), pancreatic cancer cell lines (PANC-1 and Mia-Paca-2), rectal cancer cell lines (HT29 and HCT116), a gastric adenocarcinoma cell line (AGS), a malignant melanoma cell line (A375), and an adenocarcinoma cell line (MDA-MB-231) were prepared. Each cell line was cultured in a flask, and the cells which reached the logarithmic growth phase were prepared, washed with PBS, harvested with trypsin, centrifuged to adjust the cell density, and then resuspended in an appropriate culture medium, and plated into 96-well plates. After culturing until the cells attached to the plates and stabilized, AST-DT-218 and controls (lenalidomide and pomalidomide) were prepared and diluted to various concentrations (10-point by diluting by half from the highest concentration of 50 μM). […] After completion of the culture, cell survival was assessed using a cell counting method through cell nuclear staining. Data were collected by measuring cell survival at each concentration, and then DRC was created (see FIGS. 5 to 12) and IC50 values were calculated (see Table 8).

Huh7 [4] = assay: HCC cell survival by cell nuclear staining, 24 hours, Huh7; type: cell-based; conditions: Homo sapiens, Huh-7
Experimental: as §1

PANC-1 = assay: Dose response curve, cell survival, 48 hours, PANC-1; type: cell-based; conditions: Homo sapiens, Pancreatic Carcinoma, read-out: IC50 of AST-DT-218, PANC-1
Experimental: as §2

Huh7 [5] = assay: Dose response curve, cell survival, 48 hours, Huh7; type: cell-based; conditions: Homo sapiens, Huh-7, Hepatocellular Carcinoma, read-out: IC50 of AST-DT-218, Huh7
Experimental: as §2

Mia-Paca-2 = assay: Dose response curve, cell survival, 48 hours, Mia-Paca-2; type: cell-based; conditions: Homo sapiens, Pancreatic Carcinoma, read-out: IC50 of AST-DT-218, Mia-Paca-2
Experimental: as §2

MDA-MB-231 = assay: Dose response curve, cell survival, 48 hours, MDA-MB-231; type: cell-based; conditions: Homo sapiens, Adenocarcinoma, read-out: IC50 of AST-DT-218, MDA-MB-231
Experimental: as §2

hERG channel [6] = target: T1, hERG channel (Homo sapiens (Human), UniProt Q12809); assay: hERG ligand binding assay; conditions: membranes of hERG channel-expressing HEK293 cell line
T1 sequence (Q12809 whole entry): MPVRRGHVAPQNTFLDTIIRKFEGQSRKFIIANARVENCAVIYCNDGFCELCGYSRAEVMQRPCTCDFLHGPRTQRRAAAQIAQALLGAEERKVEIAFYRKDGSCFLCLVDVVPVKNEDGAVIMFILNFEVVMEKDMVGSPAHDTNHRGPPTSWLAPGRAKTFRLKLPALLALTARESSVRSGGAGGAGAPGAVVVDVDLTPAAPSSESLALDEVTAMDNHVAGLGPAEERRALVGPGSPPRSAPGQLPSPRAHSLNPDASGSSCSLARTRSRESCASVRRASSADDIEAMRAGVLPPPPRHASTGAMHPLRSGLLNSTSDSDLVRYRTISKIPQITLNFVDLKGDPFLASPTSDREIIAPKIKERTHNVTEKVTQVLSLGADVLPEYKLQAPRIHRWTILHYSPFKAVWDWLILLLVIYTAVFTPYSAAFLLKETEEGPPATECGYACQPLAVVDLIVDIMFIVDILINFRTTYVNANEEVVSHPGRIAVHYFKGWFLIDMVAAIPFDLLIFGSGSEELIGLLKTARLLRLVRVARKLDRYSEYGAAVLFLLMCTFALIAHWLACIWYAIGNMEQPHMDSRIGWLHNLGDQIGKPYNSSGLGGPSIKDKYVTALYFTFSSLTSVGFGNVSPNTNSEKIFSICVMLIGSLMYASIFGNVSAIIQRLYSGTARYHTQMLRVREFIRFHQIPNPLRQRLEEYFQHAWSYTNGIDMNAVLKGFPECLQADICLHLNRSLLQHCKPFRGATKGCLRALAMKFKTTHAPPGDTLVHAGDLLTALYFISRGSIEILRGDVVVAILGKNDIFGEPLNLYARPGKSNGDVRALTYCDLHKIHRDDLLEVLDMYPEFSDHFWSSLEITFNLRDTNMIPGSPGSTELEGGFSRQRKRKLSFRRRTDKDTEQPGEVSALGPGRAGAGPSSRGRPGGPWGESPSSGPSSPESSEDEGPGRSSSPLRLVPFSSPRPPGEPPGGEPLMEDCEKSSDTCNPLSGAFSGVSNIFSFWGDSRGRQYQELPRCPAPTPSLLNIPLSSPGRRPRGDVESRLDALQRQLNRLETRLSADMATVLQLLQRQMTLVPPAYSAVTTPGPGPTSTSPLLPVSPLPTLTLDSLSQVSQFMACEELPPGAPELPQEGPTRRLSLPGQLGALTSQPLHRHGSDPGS
Experimental: Additionally, a ligand binding assay was performed to measure the affinity of AST-DT-218 that binds to the hERG channel. First, a hERG channel-expressing cell line (HEK293) was cultured, and then the cells were centrifuged to extract the cell membrane, and membrane proteins were prepared using a cell lysis reagent. A labeled hERG ligand was prepared and AST-DT-218 was dissolved in a solvent (DMSO) and diluted to a concentration (1 μM). After dispensing the cell membrane proteins into a 96-well plate or appropriate experimental equipment, competitive binding experiments were performed by adding AST-DT-218 at various concentrations to each well and incubated for 1 to 2 hours. After completion of the binding, the unbound ligands were washed using a recovery solution to separate the same, the extent of ligand binding was measured using a radiation detection device or fluorescence reader, and the signal intensities were analyzed to calculate the ligand binding inhibition ratio. The degree of binding inhibition according to the concentration of AST-DT-218 was plotted to derive the IC50 value.

TA100 strain = system: TA100 strain
Experimental: (§3) First, TA98 and TA 100 strains, which detect frameshift mutations and point mutations, respectively, were cultured. Then, AST-DT-218 was dissolved in a solvent and diluted to various concentrations (20.5 μg/mL, 61.7 μg/mL 185.1 μg/mL, […], 1666.6 μg/mL, and 5000 μg/mL) to prepare an […] (a metabolic activation system; concentration: 30%) including liver enzyme extracts and supplements. Into a histidine-deficient medium at different concentrations of AST-DT-218, (i) the TA98 strain was inoculated without the […] (TA98−S9), (ii) the TA98 strain was inoculated by mixing it with the […] (TA98+S9), (iii) the TA100 strain was inoculated without the […] (TA100−S9), and (iv) the TA100 strain was inoculated by mixing it with the S9 mixture (TA100+S9). As a solvent control, which is a negative control, only the solvent was inoculated into a histidine-deficient medium, and only a pure solvent was used in the absence of any compound. […] After culturing for 48 to 72 hours in each medium, the number of colonies generated was counted to calculate the mutation rate, and the mutagenic effect was compared depending on the presence or absence of the S9 mixture to analyze the effect on metabolic activation.

TA98 strain = system: TA98 strain
Experimental: as §3

HCT116 = assay: Dose response curve, cell survival, 48 hours, HCT116; type: cell-based; conditions: Homo sapiens, HCT-116, Colorectal Carcinoma, read-out: IC50 of AST-DT-218, HCT116
Experimental: as §2

NCI-H1299 = assay: Dose response curve, cell survival, 48 hours, NCI-H1299; type: cell-based; conditions: Homo sapiens, Non-Small Cell Lung Cancer, read-out: IC50 of AST-DT-218, NCI-H1299
Experimental: as §2

NCI-H460 = assay: Dose response curve, cell survival, 48 hours, NCI-H460; type: cell-based; conditions: Homo sapiens, Non-Small Cell Lung Cancer, read-out: IC50 of AST-DT-218, NCI-H460
Experimental: as §2

HT29 = assay: Dose response curve, cell survival, 48 hours, HT29; type: cell-based; conditions: Homo sapiens, HT-29, Colorectal Carcinoma, read-out: IC50 of AST-DT-218, HT29
Experimental: as §2

hERG channel [7] = target: T1, hERG channel; assay: hERG-related cardiotoxicity test using automated patch clamp; type: cell-based; conditions: hERG channel-expressing CHO cell line
Experimental: In order to evaluate the inhibitory effect of AST-DT-218 on the hERG channel and determine its potential to induce cardiotoxicity, a hERG-related cardiotoxicity test using an automated patch clamp was performed. First, a hERG channel-expressing cell line (CHO) was cultured, and AST-DT-218 was dissolved in a solvent (DMSO) and diluted to a concentration (1 μM). Cells were mounted on a patch-clamp device, and the electrical activity of hERG channels was recorded by measuring voltage-dependent currents. The inhibitory effect was calculated as the current reduction ratio, and the IC50 value was derived by constructing a concentration-response curve.

A375 = assay: Dose response curve, cell survival, 48 hours, A375; type: cell-based; conditions: Homo sapiens, A-375, Malignant Melanoma, read-out: IC50 of AST-DT-218, A375
Experimental: as §2

Hep3B [8] = assay: HCC cell survival by cell nuclear staining, 24 hours, Hep3B; type: cell-based; conditions: Homo sapiens
Experimental: as §1

AGS = assay: Dose response curve, cell survival, 48 hours, AGS; type: cell-based; conditions: Homo sapiens, Gastric Adenocarcinoma, read-out: IC50 of AST-DT-218, AGS
Experimental: as §2

TA98 and TA100 strains = conditions: positive controls
Experimental: as §3

Sequence of CRBN proteins (Q96SW2 whole entry): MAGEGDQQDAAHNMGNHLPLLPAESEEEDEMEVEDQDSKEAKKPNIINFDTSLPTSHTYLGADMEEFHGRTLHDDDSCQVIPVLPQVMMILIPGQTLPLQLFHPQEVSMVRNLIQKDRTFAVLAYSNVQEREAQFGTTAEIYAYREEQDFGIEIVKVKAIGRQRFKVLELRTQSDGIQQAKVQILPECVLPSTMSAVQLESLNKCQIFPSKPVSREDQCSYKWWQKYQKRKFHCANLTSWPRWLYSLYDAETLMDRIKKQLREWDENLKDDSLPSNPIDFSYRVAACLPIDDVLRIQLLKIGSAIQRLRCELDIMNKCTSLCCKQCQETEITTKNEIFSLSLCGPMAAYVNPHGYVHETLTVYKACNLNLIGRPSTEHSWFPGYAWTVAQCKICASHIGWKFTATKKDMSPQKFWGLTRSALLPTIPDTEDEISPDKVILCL

CCCC(C)Nc1cccc2c1C(=O)N(C1CCC(=O)NC1=O)C2=O (stereo in doubt) [AST-DT-135, 2-(2,6-dioxopiperidin-3-yl)-4-(((S)-pentan-2-yl)amino)isoindoline-1,3-dione]
Kd (CRBN proteins): 29 nM

COc1ccc([C@@H](C)Nc2cccc3c2C(=O)N(C2CCC(=O)NC2=O)C3=O)cc1 (stereo partly drawn) [AST-DT-218, 2-(2,6-dioxopiperidin-3-yl)-4-(((R)-1-(4-methoxyphenyl)ethyl)amino)isoindoline-1,3-dione]
IC50 (SNU449): 155 nM
changes in clinical symptoms, body weight, food consumption, ophthalmological examination, organ weights, and autopsies ([1]; single oral dose up to 2,000 mg/kg, 15 days observation): no toxicologically significant changes
Clinical Signs ([1]; single p.o. dose 500 mg/kg, all animals, day 2): colored stool
Clinical Signs ([1]; single p.o. dose 1,000 mg/kg, all animals, day 2): colored stool
Clinical Signs ([1]; single p.o. dose 2,000 mg/kg, all animals, day 2): colored stool
Clinical Signs ([1]; single p.o. dose 2,000 mg/kg, animal #19, day 14-15): loss of fur
Clinical Signs ([1]; single p.o. dose 2,000 mg/kg, animal #40, day 3): colored stool
Clinical Signs ([1]; single p.o. dose 2,000 mg/kg, animals #18 to #20, day 3): colored stool
weight loss or abnormal behavior [2]: no weight loss or abnormal behavior
IC50 (SNU475): 1450 nM
IC50 (Hep3B [3]): 882 nM
IC50 (Huh7 [4]): 750 nM
IC50 (PANC-1): 674 nM
Kd (CRBN proteins): 16 nM
IC50 (Huh7 [5]): 693 nM
IC50 (Mia-Paca-2): 292 nM
IC50 (MDA-MB-231): 636 nM
possibility of causing cardiotoxicity (hERG ligand binding) (hERG channel [6]): low possibility of causing cardiotoxicity
number of mutant colonies (TA100 strain; TA100, regardless of presence or absence of S9 mixture): no significant increase
Mutagenic Data Points w/ S9 (TA100 strain; TA100, test conc. 20.5-5,000 μg/mL, with S9): No
Mutagenic Data Points w/o S9 (TA100 strain; TA100, test conc. 20.5-5,000 μg/mL, without S9): No
number of mutant colonies (TA98 strain; TA98, regardless of presence or absence of S9 mixture): no significant increase
Mutagenic Data Points w/ S9 (TA98 strain; TA98, test conc. 20.5-5,000 μg/mL, with S9): No
Mutagenic Data Points w/o S9 (TA98 strain; TA98, test conc. 20.5-5,000 μg/mL, without S9): No
IC50 (HCT116): 187 nM
IC50 (NCI-H1299): 390 nM
IC50 (NCI-H460): 242 nM
IC50 (HT29): 340 nM
possibility of causing cardiotoxicity (hERG patch clamp) (hERG channel [7]): low possibility of causing cardiotoxicity
IC50 (A375): 227 nM
IC50 (Hep3B [8]): 378 nM
IC50 (AGS): 254 nM

C[C@H](CO)Nc1cccc2c1C(=O)N(C1CCC(=O)NC1=O)C2=O (stereo partly drawn) [AST-DT-220, 2-(2,6-dioxopiperidin-3-yl)-4-(((R)-1-hydroxypropan-2-yl)amino)isoindoline-1,3-dione]
Kd (CRBN proteins): 52 nM

Nc1ccc2cc3ccccc3cc2c1 [Example 2-AA, 2-aminoanthracene]
number of mutant colonies (TA98 and TA100 strains): significant increase

O=[N+]([O-])c1ccc2c(c1)Cc1ccccc1-2 [Example 2-NF, 2-nitrofluorene]
number of mutant colonies (TA98 and TA100 strains): significant increase

CNC(=O)c1cc(Oc2ccc(NC(=O)Nc3ccc(Cl)c(C(F)(F)F)c3)cc2)ccn1 [Sorafenib, reference compound]
IC50 (SNU449): 11300 nM
IC50 (Huh7 [4]): 4370 nM
IC50 (Hep3B [8]): 5680 nM
